Measured values published in patent publication US5635510A, “Substituted pyrrolidin-3-yl-alkyl-piperidines” (Merrell Pharmaceuticals Inc., priority 1994, dated 1997).

Legend:
[1] = molecular target: T1, NK-3 receptor (Cavia porcellus, UniProt P30098); assay: Antagonism of iodinated eledoisin binding to NK3 receptor, guinea pig cerebral cortex; details: NK-3 IC50, guinea pig cerebral cortex, 125I-eledoisin, mean of several experiments
T1 construct: evaluated in freshly collected guinea pig cerebral cortex; from tissue; host or cells: guinea pig cerebral cortex
T1 sequence (P30098 1-440): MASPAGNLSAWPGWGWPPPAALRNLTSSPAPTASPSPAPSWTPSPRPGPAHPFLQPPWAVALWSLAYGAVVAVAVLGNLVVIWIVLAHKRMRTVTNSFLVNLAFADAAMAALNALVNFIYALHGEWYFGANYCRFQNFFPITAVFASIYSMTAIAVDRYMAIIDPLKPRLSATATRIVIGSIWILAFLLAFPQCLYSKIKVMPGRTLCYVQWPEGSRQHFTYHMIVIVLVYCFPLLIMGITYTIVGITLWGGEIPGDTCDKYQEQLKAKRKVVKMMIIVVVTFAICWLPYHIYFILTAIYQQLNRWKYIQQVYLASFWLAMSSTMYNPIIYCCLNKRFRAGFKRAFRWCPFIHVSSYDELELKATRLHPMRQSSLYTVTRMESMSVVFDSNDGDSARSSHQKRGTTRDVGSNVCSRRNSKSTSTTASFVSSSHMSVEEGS
Method: (§1) ANTAGONISM OF IODINATED TACHYKININ BINDING TO NK1 AND NK2
(§2) RECEPTORS BY PUTATIVE ANTAGONISTS
The NK1 receptor affinity of proposed tachykinin antagonists was evaluated in guinea pig lungs (Keystone Biologicals, Cleveland, OH), affinity for the NK2 receptor evaluated in HSKR-1 cells (which are mouse 3T3 fibroblasts expressing the human jejunal NK2 receptor) and NK-3 receptor affinity was evaluated in freshly collected guinea pig cerebral cortex. Tissues or cells were homogenized with a Polytron in 15 volumes of 50 mM Tris-HCl buffer (pH 7.4, 4° C.) and centrifuged. The pellet was resuspended in Tris-HCl buffer and was centrifuged; the pellet was washed twice by resuspension. The final pellet was resuspended at a concentration of 40 mg/ml for tissues (guinea pig lung and cerebral cortex) and 20 mg/ml for cells in incubation buffer and remained at room temperature for at least 15 min prior to use. Receptor binding was initiated by addition of 250 ul membrane preparation in duplicate to 0.1 nM of the following radioligands: ^125 I-Bolton Hunter Lys-3 labeled substance P; ^125 iodohistidyl-1-neurokinin A; and ^125 I-Bolton Hunter labeled Lys-4 eledoisin in a final volume of 500 ul of buffer containing 50 mM Tris-HCl (pH 7.4 at room temperature), 0.1% bovine serum albumin, 2 mM MnCl2, 40 ug/ml bacitracin, 4 μg/ml leupeptin and chymostatin, 1 μM thiorphan and various doses of the putative tachykinin antagonists. Incubations were performed at room temperature for 90 min (NK1 receptor assays) or 2 hr (NK2 and NK3 receptor assays); binding was terminated by addition of 50 mM Tris-HCl buffer (pH 7.4, 4° C.) and filtration under vacuum through GF/B filters presoaked with 0.1% polyethyleneimine (NK1 receptor assays) or 0.5% bovine serum albumin (NK2 and NK3 receptor assays). Filter bound radioactivity was quantitated in a gamma counter. […] Specific binding was calculated by subtracting nonspecific binding from total binding. Competition of iodinated SP, NKA, or eledoisin binding by test compounds or standards was expressed as a percentage of this maximum competition. […]

[2] = molecular target: T2, NK1 receptor (Cavia porcellus, UniProt P30547); assay: Antagonism of iodinated substance P binding to NK1 receptor, guinea pig lung; details: NK-1 IC50, guinea pig lung, 125I-substance P, mean of several experiments
T2 construct: evaluated in guinea pig lungs; tissue Keystone Biologicals, Cleveland, OH; host or cells: guinea pig lung
Method: as §1, §2
(§3) The NK1 receptor affinity of proposed tachykinin antagonists was evaluated in guinea pig lungs (Keystone Biologicals, Cleveland, OH), affinity for the NK2 receptor evaluated in HSKR-1 cells (which are mouse 3T3 fibroblasts expressing the human jejunal NK2 receptor) and NK-3 receptor affinity was evaluated in freshly collected guinea pig cerebral cortex. Tissues or cells were homogenized with a Polytron in 15 volumes of 50 mM Tris-HCl buffer (pH 7.4, 4° C.) and centrifuged. The pellet was resuspended in Tris-HCl buffer and was centrifuged; the pellet was washed twice by resuspension. The final pellet was resuspended at a concentration of 40 mg/ml for tissues (guinea pig lung and cerebral cortex) and 20 mg/ml for cells in incubation buffer and remained at room temperature for at least 15 min prior to use. Receptor binding was initiated by addition of 250 ul membrane preparation in duplicate to 0.1 nM of the following radioligands: ^125 I-Bolton Hunter Lys-3 labeled substance P; ^125 iodohistidyl-1-neurokinin A; and ^125 I-Bolton Hunter labeled Lys-4 eledoisin in a final volume of 500 ul of buffer containing 50 mM Tris-HCl (pH 7.4 at room temperature), 0.1% bovine serum albumin, 2 mM MnCl2, 40 ug/ml bacitracin, 4 μg/ml leupeptin and chymostatin, 1 μM thiorphan and various doses of the putative tachykinin antagonists. Incubations were performed at room temperature for 90 min (NK1 receptor assays) or 2 hr (NK2 and NK3 receptor assays); binding was terminated by addition of 50 mM Tris-HCl buffer (pH 7.4, 4° C.) and filtration under vacuum through GF/B filters presoaked with 0.1% polyethyleneimine (NK1 receptor assays) or 0.5% bovine serum albumin (NK2 and NK3 receptor assays). Filter bound radioactivity was quantitated in a gamma counter. Nonspecific binding was defined as binding in the presence of 1 μM substance P, neurokinin A, or eledoisin. Specific binding was calculated by subtracting nonspecific binding from total binding. Competition of iodinated SP, NKA, or eledoisin binding by test compounds or standards was expressed as a percentage of this maximum competition. IC50 values (concentration required to inhibit 50% of receptor binding) were generated for each of the test compounds by nonlinear regression using an iterative curve fitting program (GraphPAD Inplot, San Diego, Calif.).

[3] = molecular target: T3, human jejunal NK2 receptor (Homo sapiens, UniProt P21452); assay: Antagonism of iodinated neurokinin A binding to NK2 receptor, HSKR-1 cells (mouse 3T3 fibroblasts expressing the human jejunal NK2 receptor); details: NK-2 IC50, HSKR-1 cells, 125I-neurokinin A, mean of several experiments
T3 construct: expressed in transfected cells; host or cells: HSKR-1 cells (mouse 3T3 fibroblasts)
T3 sequence (P21452 1-398): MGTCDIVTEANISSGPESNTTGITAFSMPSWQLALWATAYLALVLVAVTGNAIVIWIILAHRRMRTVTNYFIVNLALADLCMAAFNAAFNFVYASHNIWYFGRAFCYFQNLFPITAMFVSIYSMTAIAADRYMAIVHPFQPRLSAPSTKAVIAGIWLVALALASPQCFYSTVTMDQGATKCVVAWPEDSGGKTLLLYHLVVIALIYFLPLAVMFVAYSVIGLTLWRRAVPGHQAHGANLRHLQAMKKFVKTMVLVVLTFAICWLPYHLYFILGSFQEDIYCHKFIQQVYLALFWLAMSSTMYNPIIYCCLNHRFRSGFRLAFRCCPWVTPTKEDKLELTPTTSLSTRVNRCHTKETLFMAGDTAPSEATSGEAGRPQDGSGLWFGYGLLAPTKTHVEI
Method: as §1, §2, §3

T2 sequence (P30547 whole entry): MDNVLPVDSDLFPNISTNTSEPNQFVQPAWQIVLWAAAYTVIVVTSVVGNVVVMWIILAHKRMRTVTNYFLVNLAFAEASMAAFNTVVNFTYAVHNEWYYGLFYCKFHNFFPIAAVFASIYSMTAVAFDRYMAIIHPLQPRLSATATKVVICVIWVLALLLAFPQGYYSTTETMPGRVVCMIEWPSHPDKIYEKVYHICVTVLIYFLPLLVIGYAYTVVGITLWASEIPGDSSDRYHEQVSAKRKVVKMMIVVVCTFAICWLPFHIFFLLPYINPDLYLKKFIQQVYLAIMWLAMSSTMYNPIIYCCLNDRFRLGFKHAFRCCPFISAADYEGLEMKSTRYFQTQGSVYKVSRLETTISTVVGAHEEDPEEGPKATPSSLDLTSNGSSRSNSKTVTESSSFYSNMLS

SMILES: COc1cc(C(=O)N2CCC(CCN3CCC(C(N)=O)(c4ccccc4)CC3)(c3ccc(Cl)c(Cl)c3)C2)cc(OC)c1OC (single isomer, unassigned; (-)) [Example 21, (-)-1-[2-[3-(3,4-dichlorophenyl)-1-(3,4,5-trimethoxy-benzoyl)-pyrrolidin-3-yl]-ethyl]-4-phenyl-piperidine-4-carboxylic acid amide]
- IC50 [1]: 2.3 µM
- IC50 [2]: 0.183 µM
- IC50 [3]: 0.76 µM
